Measurements taken from patent US12103925B2, “Crystal and amorphous form of tolebrutinib, preparation method therefor, and use thereof” (HANGZHOU SOLIPHARMA CO., LTD., priority 2021, dated 2024).
Values after ≈ are worked out from the molar mass of the structure shown. Values joined by “and” are separate entries in the source; they are usually repeats but may differ in a detail not shown here. Equal entries are not always repeated. “Also recorded” adds a separate entry of the source.

Tests used:
Format in all cases: physicochemical
[1] = Stability study under long-term and accelerated conditions (XRPD and HPLC); settings: for Purity after placing / sample after placing / chemical purity before and after storage: 10 months; for Purity after placing: HPLC; for sample after placing: XRPD; for time the solid form remains unchanged / stable: both long-term (25° C./60% RH/open) and accelerated (40° C./75% RH/open) conditions; for chemical purity before and after storage: long-term and accelerated conditions
Description: In this application, X-ray powder diffraction (XRPD) data were collected using a BrukerD8 Advance diffractometer; parameters are as follows: Cu radiation; wavelength: 1.54 Å; Current voltage: 40 KV, 40 mA; Scan range: 3˜40′2θ.
(§1) In this application, the HPLC parameters for chemical stability and solubility are as follows:
[…] Regular testing using XRPD and HPLC was performed.
(§2) […] Regular testing using XRPD and HPLC were performed.
as §2

[2] = Stability under light and oxidation conditions; settings: for time the form remains stable under light: light (25° C./4500 lx/closed); for chemical purity before and after storage: light and oxidation conditions, 14 days; for time the form remains stable under oxidation: oxidation (in an atmosphere of carbamide peroxide)
[3] = Solubility study in pH 1.2 buffer solution and pH 1.2 SGF (HPLC); settings: for Solubility, pH 1.2 SGF: pH 1.2 SGF (with pepsin)
Description: as §1
The amorphous form of tolebrutinib, Form 1 and Form 2 samples of the present application were studied using pH 1.2 buffer solution (preparation: 375.90 mg potassium chloride solid and 1709.47 mg concentrated hydrochloric acid (37%) were added to a 100 mL volumetric flask, 80 mL of pure water was added, adjusted the pH to 1.2 with hydrochloric acid or potassium hydroxide, q.s. to volume) and pH 1.2 SGF (preparation: In 765 μL of concentrated hydrochloric acid (37%) added about 80 mL of water, 1 g of pepsin, 200 mg chlorinated sodium, shook, diluted with water to 100 mL) to form a supersaturated solution, and the dissolved content of the sample in the saturated solution was determined by high performance liquid chromatography (HPLC) at a fixed time point.

[4] = Dynamic moisture adsorption analysis (DVS), hygroscopicity
Description: In this application, dynamic moisture adsorption analysis (DVS) data and isothermal adsorption analysis data were obtained using a TA Instruments Q5000 TGA; parameters are as follows: temperature: 25° C.; relative humidity range: 0% RH-80% RH; dm/dt=0.001%/min; equilibration time: gas: N2; sample pan: platinum pan.

[5] = Compressibility study (tablet compression, hardness, tensile strength); settings: for tensile strength: calculated, T=2H/πDL*9.8; for diameters / thicknesses: circular tablets, 7.5 mm punch; for diameters / thicknesses / hardness: mean main pressure 1.8 KN; for hardness: radial breaking force, tablet hardness tester
Description: The tablet compression was conducted using a Tianxiang rotary tablet press. A circular punch with a diameter of 7.5 mm (07.5 mm) was selected, a filling depth of 17.9 mm and a mean main pressure of 1.8 KN was used to form circular tablets. The tablets' radial breaking force (hardness, H) was measured using a tablet hardness tester. The tablets' diameter (D) and thickness (L) were measured using a vernier caliper. The tensile strength (T) of the powder was calculated using the formula T=2H/πDL*9.8.

[6] = Stability of the solid form in tablets at 25° C./60% RH (XRPD); settings: XRPD before and after storage
Description: (§3) Following the formulation in Table 6, API, lactose hydrate, polyvinylpyrrolidone, hydroxypropyl cellulose, microcrystalline cellulose and magnesium stearate were mixed and compressed to obtain a tablet core. Subsequently, the tablet cores are coated with a solution/suspension for film coating, resulting in the preparation of the tablets.
The prepared amorphous tablets, Form 1 tablets and Form 2 tablets were individually placed at 25° C./60% RH for 14 days. XRPD tests were performed before and after storage.

[7] = Solid form before and after the tableting process (XRPD); settings: XRPD comparison
Text: as §3

[8] = Polarized light microscope (PLM) particle size; settings: PLM image
Description: In this application, the polarized light microscope (PLM) images were collected using a XPV˜990E polarized light microscope; a small amount of powder sample was placed on a glass slide, a small amount of mineral oil was added dropwise to disperse the sample, a cover glass was placed on the slide, and the sample was placed on the slide. Observing and taking pictures on the stage.

[9] = Competitive slurry experiments
[10] = listed as amorphous form of tolebrutinib
[11] = listed as amorphous tolebrutinib
[12] = pH 1.2 buffer and pH 1.2 SGF (medium simulating the physiological pH of the human stomach)
[13] = pH 1.2 buffer solution, 2 hours

SMILES | Purity after placing ([1]; 40° C./75% RH/open) | sample after placing ([1]; 40° C./75% RH/open) | Solubility, pH 1.2 SGF ([3]; 2 hours) [mg/mL] | tensile strength [5] [MPa] | diameters [5] [mm] | thicknesses [5] [mm] | hardness [5] [kg] | solid form before and after the tableting process [7] | Purity after placing ([1]; 25° C./60% RH/open) [%] | sample after placing ([1]; 25° C./60% RH/open) | time the solid form remains unchanged / stable [1] [months] | time the form remains stable under light [2] | chemical purity before and after storage [2] | time the form remains stable under oxidation [2] | solubility, approximate level [3, 12] | Solubility, pH 1.2 buffer solution [3, 13] [mg/mL] | particle size [8] [μm] | other results
C=CC(=O)N1CCC[C@@H](n2c(=O)n(-c3ccc(Oc4ccccc4)cc3)c3c(N)nccc32)C1 [Amorphous, tolebrutinib] | 98.00% | Amorphous | 36.76 | 1.4 | 7.49 | 4.15 | 7.18 | remained unchanged |  |  |  |  |  |  |  |  |  | Purity after placing ([1]; 25° C./65% RH/open): 98.87%; sample after placing ([1]; 25° C./65% RH/open): Amorphous; Purity after placing ([1]; 40° C./75% RH/open, listed as amorphous form of tolebrutinib): 98.0%; time the solid form remains unchanged / stable [1, 10]: 10 months; time the solid form remains unchanged / stable [1, 11]: 10 months; chemical purity before and after storage [1, 10]: essentially unchanged; chemical purity before and after storage [1, 11]: essentially unchanged; time the form remains stable under light [2, 10]: 14 days; time the form remains stable under light [2, 11]: at least 14 days; chemical purity before and after storage [2, 10]: no essential change; chemical purity before and after storage [2, 11]: essentially unchanged; time the form remains stable under oxidation [2, 10]: 14 days; time the form remains stable under oxidation [2, 11]: at least 14 days; solubility compared with the crystal forms [3]: surpassing that of Tolebrutinib Form 1 and Form 2; solubility ([3]; pH 1.2 buffer solution and pH 1.2 SGF, pH 1.2, simulated gastric fluid, thermodynamic from solid, pH 1.2 buffer and pH 1.2 SGF (medium simulating the physiological pH of the human stomach), read-out: solubility, approximate level): ~20 mg/mL (≈ 43.9 mM); solubility at 2 hours ([3]; pH 1.2 buffer solution, pH 1.2, simulated gastric fluid, thermodynamic from solid, 2 hours): 29.1 mg/mL (≈ 63.8 mM); DVS weight gain ([4]; between 20% RH and 80% RH, 25° C., listed as amorphous form of tolebrutinib): about 1.9%; DVS weight gain ([4]; between 20% RH and 80% RH, 25° C., listed as sample 1-1): about 1.9%; time the solid form remains unchanged / stable in the formulation (tablets) [6, 10]: 14 days
C=CC(=O)N1CCC[C@@H](n2c(=O)n(-c3ccc(Oc4ccccc4)cc3)c3c(N)nccc32)C1 [Form 1, tolebrutinib] | 99.5% and 99.54% | Form 1 | 18.28 | 1.3 | 7.51 | 4.18 | 6.40 | remained unchanged | 99.77 | Form 1 | 10 | at least 14 days | basically unchanged | at least 14 days | approximately 20 mg/mL | 21.19 | ≤ 10 | time the solid form remains unchanged / stable ([1]; listed as Tolebrutinib Form 1): at least 10 months; chemical purity before and after storage ([1]; listed as Tolebrutinib Form 1): basically unchanged; also recorded: essentially unchanged; solubility, approximate level ([3]; pH 1.2 buffer and pH 1.2 SGF (medium simulating the physiological pH of the human stomach), listed as Tolebrutinib Form 1): around 20 mg/mL; DVS weight gain ([4]; between 20% RH and 80% RH, 25° C., listed as sample 2-1): about 0.46%; time the solid form remains unchanged / stable in the formulation (tablets) ([6]; listed as Tolebrutinib Form 1): at least 14 days
C=CC(=O)N1CCC[C@@H](n2c(=O)n(-c3ccc(Oc4ccccc4)cc3)c3c(N)nccc32)C1 [Form 2, tolebrutinib] | 98.24% | Form 2 | 32.45 | 1.7 | 7.51 | 4.18 | 8.31 | remained unchanged | 98.87 | Form 2 | 10 | at least 14 days | basically unchanged | at least 14 days | approximately 20 mg/mL | 21.44 | ≤ 10 | time the solid form remains unchanged / stable ([1]; listed as tolebrutinib Form 2): at least 10 months; chemical purity before and after storage ([1]; listed as Tolebrutinib Form 2): essentially unchanged; chemical purity before and after storage ([1]; listed as tolebrutinib Form 2): basically unchanged; DVS weight gain ([4]; between 0% RH and 80% RH, listed as Tolebrutinib Form 2): 0.3%; DVS weight gain ([4]; between 0% RH and 80% RH, listed as sample 3-1): about 0.34%; time the solid form remains unchanged / stable in the formulation (tablets) ([6]; listed as Tolebrutinib Form 2): at least 14 days; thermodynamic stability [9]: thermodynamically stable form at temperatures of 30 °C and above
